Assay type in all cases: cell-based, guinea pig (Hartley strain)
In one test the target is T1, 5-lipoxygenase (Cavia porcellus, UniProt A0A286X958).
T1 construct: endogenous in cells; host or cells: guinea pig (Hartley strain) casein-elicited peritoneal exudate cells, intact cell suspension
T1 sequence (A0A286X958 1-674): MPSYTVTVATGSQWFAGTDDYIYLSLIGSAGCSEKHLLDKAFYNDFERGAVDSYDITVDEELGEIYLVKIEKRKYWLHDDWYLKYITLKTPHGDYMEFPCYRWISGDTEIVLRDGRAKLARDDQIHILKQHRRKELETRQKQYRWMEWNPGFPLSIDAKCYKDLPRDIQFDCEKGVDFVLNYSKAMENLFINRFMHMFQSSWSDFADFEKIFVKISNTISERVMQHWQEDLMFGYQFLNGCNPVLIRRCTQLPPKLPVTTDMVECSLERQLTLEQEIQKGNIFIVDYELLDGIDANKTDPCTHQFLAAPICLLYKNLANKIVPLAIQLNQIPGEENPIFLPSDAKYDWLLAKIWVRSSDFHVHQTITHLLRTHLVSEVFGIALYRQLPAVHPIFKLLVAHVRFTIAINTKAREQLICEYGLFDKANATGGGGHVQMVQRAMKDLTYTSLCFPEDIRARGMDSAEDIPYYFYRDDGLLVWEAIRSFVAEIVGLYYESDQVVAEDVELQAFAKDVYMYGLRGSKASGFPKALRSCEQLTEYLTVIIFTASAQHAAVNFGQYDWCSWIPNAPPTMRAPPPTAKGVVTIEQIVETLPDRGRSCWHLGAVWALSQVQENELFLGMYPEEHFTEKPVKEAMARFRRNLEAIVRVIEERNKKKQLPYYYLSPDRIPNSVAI
The test can be described thus: 5-Lipoxygenase inhibitory activity (conversion of 14C-arachidonic acid to 5-HETE) in guinea pig peritoneal exudate cells. The following applies: read-out: inhibition ratio (%) of 5-lipoxygenase activity; for inhibition at 3 µM: concentration 3 × 10^-6 M; for inhibition at 10 µM: concentration 10^-5 M; for inhibition at 1 µM: concentration 10^-6 M; for inhibition at 0.3 µM: concentration 3 × 10^-7 M; for inhibition at 0.1 µM: concentration 10^-7 M. How it is done:
5-Lipoxygenase inhibitory activity of the present compounds was determined by a method according to procedures described in "J. Biol. Chem., Vol. 256, pages 4156-4159, (1981, Ibid. Vol. 258, pages 5754-5758 (1983).
(1) Preparation of Test Cells
A guinea pig (Hartley strain) (500-650 g body weight) was intraperitoneally administered with 2%-casein solution in 3/50 the volume of body weight. 14 Hours after the administration, the animal was sacrificed by bleeding and the peritoneal cavity was washed with Dulbecco's phosphate buffered saline (PBS) containing 3 U/ml of heparin and the exudate cells were harvested. The sample of cells was washed twice with Dulbecco's PBS (-), then the cells were suspended in Dulbecco's PBS (-), containing 1 mM of calcium chloride and 5.5 mM of glucose, so as to make a suspension having the concentration of 2.5×10^7 cells/ml.
To 0.2 ml of the above-mentioned cell suspension was added 10^-5 M of Indomethacine, and incubated at 30° C. for 2 minutes. Each of the appropriate concentrations of test compounds was added to the suspension respectively, further incubated for 2 minutes. Next, 10 μm of Ionophore A23187 (manufactured by Calbiochem-Behring, San Diego, Calif., U. S. A) was added to the suspension, further, 10 μm of ^14 C-arachidonic acid (manufactured by Amersham Japan, Ltd., Tokyo, Japan) was added and initiated the reaction. 3 Minutes after the initiation of the reaction, 0.1 ml of 0.2M-citric acid was added so as to terminate the reaction. 1.2 Milliliters of ethyl acetate was added to the reaction mixture and shaked for 5 minutes. The reaction mixture was centrifuged at 3,000 rpm for 5 minutes so as to separate the organic layer from the aqueous layer. 1 Milliliter of the organic layer (the upper layer) was dehydrated by passing through a mini-column packed with anhydrous sodium sulfate. The dehydrated organic layer was dried under nitrogen gas stream. The residue obtained was dissolved in ethyl acetate, and the total amount of the ethyl acetate solution was spotted onto thin layer chromochromatography (TCL) plate (Art. 11845 manufactured by E. Merck A. G.). The TCL was carried out with a mixed solvent of diethyl ether:petroleum:ether:acetic acid (50:50:1 volume/volume), then the radioactive metabolites on the plate were detected by using "Ultrafilm ^3 H" (a trademark for a X-ray film, manufactured by LKB Co.). Each fractions corresponding to the metabolites was scraped in to a scintillation vial, and 5 ml of "Scintilator ACS-II" (manufactured by Amersham Japan, Ltd.), was added then the radio-activity was determined by means of a liquid scintillation counter.

The subject of test [1] is histamine release from lung fragments. The experiment in a line: Inhibition of histamine release from sensitized guinea pig lung fragments. The following applies: Cavia porcellus, read-out: Inhibition ratio (%) Histamine; for inhibition at 3 µM: Table 2, dose 3 μM; for inhibition at 30 µM: Table 2, dose 30 μM. How it is done:
(§1) Inhibitory activities on the release of SRS-A and histamine of the present compounds were determined.
(§2) A male guinea pig (Hartley strain) (body weight: about 300 g) was sensitized by a method according to P. Anderson: "Int. Archs. Allergey appln. Immunol., Vol. 64, pages 249-258 (1981). Thus, 30 mg/kg of cyclophosphamide was intraperitoneally administered to the guinea pig, and 2 days after 1 microgram of ovalbumin (manufactured by Sigma Chemical Co., St. Louis, Mo. U. S. A.) together with 10 mg of aluminium hydroxide gel were intraperitoneally administered so as to have the animal sesitized.
(§3) 50 Days after the sesitization, the animal was killed by exsanguination, and the lung was isolated from the animal and was perfused with 20 ml of Tyrode's solution, then immersed in an ice-cooled Tyrode's solution. The parenchyma of the lung was cut by using McIlwain-type tissue chopper to make it into fragments of lung having 2 mm square and the fragments were washed with Tyrode's solution. 400 Milligrams of sectiles of lung were suspended in 3.6 ml of Tyrode's solution, and this suspension was preincubated at 37° C. for 5 minutes, then 4 microliters of dimethyl sulfoxide solution of the test compound, in the case of control 4 microliters of dimethyl sulfoxide alone was added to the suspension. 5 Minutes after, 0.4 ml of 100 micrograms/ml of ovalbumin solution added so as to release SRS-A for 10 minutes. The suspension was ice-cooled and filtered through gauze, the filtrate was centrifuged at 2,000 rpm for 10 minutes and the supernatant was collected. The supernatant was stored in freezed state at -80° C. until bio-assay was conducted.
(§4) Amounts of SRS-A and histamine contained in the supernatant were determined by bio-assay using ileum of guinea pig.
(§5) A piece of the ileum (2-3 cm of length) positioned from 15-25 cm from the opening portion of ileocecum was isolated from a male guinea pig (Hartley strain) (body weight: 400-600 g) which was fasted for 24 hours. The piece of ileum was hanged vertically in a Magnus tube which was filled with 10 ml of Tyrode's solution containing 10^-7 M of atropine sulfate under air stream conditions. The isotonic contraction of the piece of the ileum was measured at 0.5 g of load by using an isotonic transducer "TD-112S" (manufactured by Nihon Koden Co., Ltd.). The measurements were carried out after the reaction to histamine of the piece of ileum was kept constant. Bioassay of histamine was measured by using the value of contraction shown in 30 seconds after the addition of the supernatant. Bioassay of on SRS-A was measured by using the value of contraction shown at 2 minutes after the addition of the supernatant in the presence of 10^-6 M of pyrilamine (manufactured by Sigma Chemical Co.), and compared with the standard curve of crude SRS-A released from the fragments of the lung.

Test [2] relates to SRS-A release from lung fragments. The experiment in a line: Inhibition of SRS-A release from sensitized guinea pig lung fragments. Conditions: Cavia porcellus. How it is done: as §1, §2, §3, §4, §5
The mark [3] stands for this setting: Table 2, dose 3 μM, read-out: Inhibition ratio (%) SRS-A.
Setting [4] is: Table 2, dose 30 μM, read-out: Inhibition ratio (%) SRS-A.
Where [5] appears, read: Table 2B, 3 μM, read-out: Inhibitory activities on SRS-A (%).
The mark [6] stands for this setting: Table 2B, 30 μM, read-out: Inhibitory activities on SRS-A (%).

Read-outs that look alike come from different tables or passages of the source.

Here are results for eleven compounds from US5220042A, “1,4-benzoquinone derivatives and benzene derivatives, and process for preparing the same” (priority 1984, dated 1993).

As for `CCCCCCCCCCCCCC1=C(OC)C(=O)C=C(OC)C1=O` [Test Compound No. 8, 2,5-Dimethoxy-3-tridecanyl-1,4-benzoquinone], at 5-lipoxygenase, the inhibition at 3 µM was 40%, the inhibition at 10 µM came out at 74% and the inhibition at 1 µM is 12%.

Take `COC1=CC(=O)C(OC)=C(CCCCCCC2=C(OC)C(=O)C=C(OC)C2=O)C1=O` [Test Compound No. 10, 2,2'-Hexamethylenebis(3,6-dimethoxy-1,4-benzoquinone)]: in test [1], the inhibition at 3 µM was 20.6% and the inhibition at 30 µM amounted to 22.4%. At 5-lipoxygenase, the inhibition at 0.3 µM amounted to 58%, the inhibition at 1 µM came to 81% and the inhibition at 0.1 µM turned out to be 17%. In addition, the inhibition at 3 µM in test [2] (setting [3]) was 73.4%. In addition, in test [2] (setting [4]), the inhibition at 30 µM is more than 95.2%.

Turning to `COC1=CC(=O)C(OC)=C(CCCCCCCC2=C(OC)C(=O)C=C(OC)C2=O)C1=O` [Test Compound No. 11, 2,2'-Heptamethylenebis(3,6-dimethoxy-1,4-benzoquinone)], the results for the inhibition at 3 µM in test [1], in test [2] (setting [3]) and in test [2] (setting [5]) were -8.4%, 32.5% and 32.5%, respectively. The inhibition at 30 µM in test [1] is -3.6%; in test [2] (setting [4]), 85.7%; in test [2] (setting [6]) it was 85.7%. On 5-lipoxygenase, the inhibition at 0.3 µM worked out at 64%. For the same compound, the inhibition at 1 µM on 5-lipoxygenase came out at 88%. For the same compound, on 5-lipoxygenase, the inhibition at 0.1 µM was found to be 44%.

On to `COC1=CC(=O)C(OC)=C(CCCCCCCCC2=C(OC)C(=O)C=C(OC)C2=O)C1=O` [Test Compound No. 12, 2,2'-Octamethylenebis(3,6-dimethoxy-1,4-benzoquinone)], for which, in test [1], the inhibition at 3 µM worked out at 2.4% and the inhibition at 30 µM is -2.2%. Moreover, at 5-lipoxygenase, the inhibition at 0.3 µM was 72%, the inhibition at 1 µM was 87% and the inhibition at 0.1 µM came out at 36%. Also, the inhibition at 3 µM in test [2] (setting [3]) stood at 26.9%. For the same compound, the inhibition at 30 µM in test [2] (setting [4]) is 71.7%.

On to `COC1=C(C)C(=O)C(OC)=C(CCCCCC2=C(OC)C(=O)C(C)=C(OC)C2=O)C1=O` [Test Compound No. 17, 2,2'-Pentamethylenebis(3,6-dimethoxy-5-methyl-1,4-benzoquinone)], for which, at 5-lipoxygenase, the inhibition at 0.3 µM was determined as 79%, the inhibition at 1 µM was 89% and the inhibition at 0.1 µM worked out at 13%. Besides, the inhibition at 3 µM in test [2] (setting [3]) came out at 56.3%. The inhibition at 30 µM in test [2] (setting [4]) turned out to be 83.9%.

Consider `COC1=C(CCO)C(=O)C(OC)=C(CCCCCC2=C(OC)C(=O)C(CCO)=C(OC)C2=O)C1=O` [Test Compound No. 19, 5,5'-Pentamethylenebis[2-(2-hydroxyethyl)-3,6-dimethoxy-1,4-benzoquinone]], for which, at 5-lipoxygenase, the inhibition at 0.3 µM was 74%, the inhibition at 1 µM was determined as 87% and the inhibition at 0.1 µM came out at 48%. The inhibition at 3 µM in test [2] (setting [3]) turned out to be 40.6%. Further, the inhibition at 30 µM in test [2] (setting [4]) amounted to 76.6%. Also, in test [2] (setting [5]), the inhibition at 3 µM amounted to 40.6%. In addition, the inhibition at 30 µM in test [2] (setting [6]) was 76.6%.

Consider `CCCCC#CCCCCCCCCCC1=C(OC)C(=O)C=C(OC)C1=O` [Test Compound No. 32, 2,5-Dimethoxy-3-(10-pentadecynyl)-1,4-benzoquinone], for which, at 5-lipoxygenase, the inhibition at 3 µM was found to be 80%, the inhibition at 0.3 µM is 36%, the inhibition at 10 µM turned out to be 87% and the inhibition at 1 µM was 56%. The inhibition at 3 µM in test [2] (setting [5]) stood at 12.4%. Moreover, in test [2] (setting [6]), the inhibition at 30 µM turned out to be 26%.

Consider `CCCC/C=C\CCCCCC1=C(OC)C(=O)C=C(OC)C1=O` [Test Compound No. 33, 2,5-Dimethoxy-3-(Z-6-undecenyl)-1,4-benzoquinone], for which, at 5-lipoxygenase, the inhibition at 3 µM worked out at 91%, the inhibition at 0.3 µM stood at 51%, the inhibition at 10 µM was 89% and the inhibition at 1 µM was 87%. Further, the inhibition at 3 µM in test [2] (setting [5]) came out at 19.6%. Moreover, in test [2] (setting [6]), the inhibition at 30 µM was 33.4%.

As to `CCCC/C=C\CCCCCCCC1=C(OC)C(=O)C=C(OC)C1=O` [Test Compound No. 34, 2,5-Dimethoxy-3-(Z-8-tridecenyl)-1,4-benzoquinone], on 5-lipoxygenase, the inhibition at 3 µM came to 73%, the inhibition at 0.3 µM is 26%, the inhibition at 10 µM turned out to be 89% and the inhibition at 1 µM was found to be 37%. For the same compound, the inhibition at 3 µM in test [2] (setting [5]) amounted to 3.2%. In addition, in test [2] (setting [6]), the inhibition at 30 µM worked out at 0.8%.

Consider `CCCCC#CCCCCCC1=C(OC)C(=O)C=C(OC)C1=O` [compound 30], for which, at 5-lipoxygenase, the inhibition at 3 µM worked out at 92%, the inhibition at 0.3 µM was found to be 39%, the inhibition at 10 µM worked out at 91% and the inhibition at 1 µM was determined as 75%. In test [2] (setting [5]), the inhibition at 3 µM is 23.8%. In addition, the inhibition at 30 µM in test [2] (setting [6]) stood at 73.4%.

`CCCCC#CCCCCCCCC1=C(OC)C(=O)C=C(OC)C1=O` [compound 31]: on 5-lipoxygenase, the inhibition at 3 µM is 91%, the inhibition at 0.3 µM turned out to be 43%, the inhibition at 10 µM is 93% and the inhibition at 1 µM is 73%. Besides, in test [2] (setting [5]), the inhibition at 3 µM amounted to 17%. The inhibition at 30 µM in test [2] (setting [6]) was 37.7%.
